Data set [1] relates to MCF-10A non-tumor mammary epithelial cell line. In words: in vitro. The format is cell-based, human. Particulars: MCF-10A; for IC50: MTT assay, read-out: Cytotoxicity, IC50, MCF-10A. A general note: Tetrazolium assays rely on reduction of a dye to a coloured formazan, in cell work by metabolically active cells.
Data set [2] has as its system MCF-7 human breast cancer cells. In words: cells. The data set is classed as cell-based. The settings on record: for IC50: MTT assay, MCF-7, read-out: Cytotoxicity, IC50, MCF-7; for Selectivity Index (SI), MCF-7: ratio of IC50 for healthy (MCF-10A) and MCF-7 cells.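 As to all read-outs here: IC50 values, including those behind the selectivity ratio, derive from formazan absorbance at 570 nm, tested in triplicate.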
Data set [3] relates to human erythrocytes. The data set can be described thus: Hemolytic activity against human erythrocytes. The data set is classed as cell-based. Particulars: for ED50, Erythrocytes (hemolytic activity): 1 h at 37 °C. How it is done: A total of 450 g of human blood (B(III) Rh+) was used to obtain erythrocytes by centrifuging three times for 5 min with phosphate-buffered saline (PBS) (pH 7.4) at 4 °C on a centrifuge LABOFUGE 400R (Heraeus, Hanau, Germany). Ice-cold PBS (pH 7.4) was used for resuspension of erythrocyte residue to a final optical density of 1.5 at 700 nm. Then, 20 µL of tested compound solutions or control (cucumarioside A0-1 [15]) were added to 180 µL of erythrocyte suspension in V-bottom 96-well plates and incubated for 1 h at 37 °C. After centrifugation (900 g, 10 min, laboratory centrifuge LMC-3000 (Biosan, Riga, Latvia)), 100 µL of supernatant was transferred into new flat plates. The values of erythrocyte lysis were measured on microplate photometer Multiskan FC (Thermo Fisher Scientific, Waltham, MA, USA) at λ = 570 nm as hemoglobin concentration in supernatant. […] All the experiments were carried out in triple repetitions, p < 0.05.

The test system of data set [4] is MDA-MB-231 triple-negative breast cancer cells. The data set can be described thus: cells. The format is cell-based, human. The settings on record: for IC50: MTT assay, MDA-MB-231, read-out: Cytotoxicity, IC50, MDA-MB-231; for Selectivity Index (SI), MDA-MB-231: ratio of IC50 for healthy (MCF-10A) and MDA-MB-231 cells.
Data set [5] has as its system T-47D human breast cancer cells. The data set can be described thus: cells. The settings on record: for IC50: MTT assay, T-47D, read-out: Cytotoxicity, IC50, T-47D; for Selectivity Index (SI), T-47D: ratio of IC50 for healthy (MCF-10A) and T-47D cells. The format is cell-based.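 As to all read-outs here: cell viability read as absorbance of formazan dye at 570 nm, each experiment run in triplicate.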

The IC50 is the concentration needed to halve the response being measured. Regarding `C=C(C)CC[C@@H](OC(C)=O)[C@]1(C)OC(=O)C23CC=C4[C@@H](CC[C@H]5C(C)(C)[C@@H](O[C@@H]6OC[C@@H](O[C@@H]7OC[C@@H](O)[C@H](O[C@@H]8O[C@H](CO)[C@@H](O)[C@H](O)[C@H]8O)[C@H]7O)[C@H](O)[C@H]6O[C@@H]6O[C@H](C)[C@@H](O[C@@H]7OC[C@@H](O)[C@H](O[C@@H]8O[C@H](CO)[C@@H](O)[C@H](OC)[C@H]8O)[C@H]7O)[C@H](O)[C@H]6O)CC[C@]45C)[C@]2(C)C[C@H](OC(C)=O)[C@@H]31` (stereo partly drawn) [Cladoloside D (18), Cladoloside D], in data set [1], the “Toxicity to normal mammary cells MCF-10A, in words” value is on record as “non-toxic” and the IC50 is more than 20 µM. Further, in data set [2], the IC50 is 15.3 ± 0.94 µM and the “Selectivity Index (SI), MCF-7” value is more than 1.31. Moreover, in data set [3], the “Hemolytic (membranolytic) activity, in words” value (“Hemolytic … in words” for short) was “high activity” and the “ED50, Erythrocytes (hemolytic activity)” value turned out to be 0.29 µM. For the same compound, the “ED50, Erythrocytes (hemolytic activity)” value in data set [3] (listed as D (18)) was 0.29 ± 0.03 µM. In data set [4], the IC50 is 2.98 ± 0.24 µM and the “Selectivity Index (SI), MDA-MB-231” value was more than 6.7. Moreover, in data set [5], the IC50 amounted to 14.9 ± 0.85 µM and the “Selectivity Index (SI), T-47D” value is on record as more than 1.34.

With `C=C(C)CC[C@@H](OC(C)=O)[C@]1(C)OC(=O)C23CC=C4[C@@H](CC[C@H]5C(C)(C)[C@@H](O[C@@H]6OC[C@@H](O[C@@H]7OC[C@@H](O)[C@H](O[C@@H]8O[C@H](CO)[C@@H](O)[C@H](OC)[C@H]8O)[C@H]7O)[C@H](O)[C@H]6O[C@@H]6O[C@H](C)[C@@H](O[C@@H]7OC[C@@H](O)[C@H](O[C@@H]8O[C@H](CO)[C@@H](O)[C@H](OC)[C@H]8O)[C@H]7O)[C@H](O)[C@H]6O)CC[C@]45C)[C@]2(C)C[C@H](OC(C)=O)[C@@H]31` (stereo partly drawn) [Cladoloside G (25), cladoloside G], the IC50 in data set [1] is more than 20 µM; in data set [2], more than 20 µM; in data set [4], 3.95 ± 0.38 µM; in data set [5], more than 20 µM. The “Hemolytic … in words” value in data set [3] is “high activity”. For the same compound, the “ED50, Erythrocytes (hemolytic activity)” value in data set [3] (listed as G (25)) is on record as 0.35 ± 0.04 µM; in data set [3] (listed as cladoloside G (25)) it was 0.35 µM. Also, in data set [4], the “Selectivity Index (SI), MDA-MB-231” value is on record as more than 5.06.

As to `CO[C@@H]1[C@@H](O)[C@H](O[C@@H]2[C@@H](O)[C@H](O[C@@H]3CO[C@@H](O[C@H]4CC[C@]5(C)C6=CCC78C(=O)O[C@@](C)([C@@H](CCC(C)C)OC(C)=O)[C@H]7[C@@H](OC(C)=O)C[C@@]8(C)[C@@H]6CC[C@H]5C4(C)C)[C@H](O[C@@H]4O[C@H](C)[C@@H](O[C@@H]5OC[C@@H](O)[C@H](O[C@@H]6O[C@H](CO)[C@@H](O)[C@H](OC)[C@H]6O)[C@H]5O)[C@H](O)[C@H]4O)[C@H]3O)O[C@H](C)[C@H]2O)O[C@H](CO)[C@H]1O` (stereo partly drawn) [Cladoloside H1 (26), Cladoloside H1], the “Toxicity to normal mammary cells MCF-10A, in words” value in data set [1] is given as “non-toxic”. Moreover, the concentration for half-maximal inhibition (IC50) in data set [1] is more than 20 µM; in data set [2], 15.9 ± 1.14 µM; in data set [4], 2.47 ± 0.32 µM; in data set [5], 13.2 ± 0.72 µM. Besides, the “ED50, Erythrocytes (hemolytic activity)” value in data set [3] was 0.21 ± 0.02 µM.

For the compound `CO[C@@H]1[C@@H](O)[C@H](O[C@@H]2[C@@H](O)[C@H](O[C@H]3[C@H](O)[C@@H](O)[C@H](O[C@H]4[C@H](O[C@H]5CC[C@]6(C)C7=CCC89C(=O)O[C@@](C)([C@@H](CCC(C)C)OC(C)=O)[C@H]8[C@@H](OC(C)=O)C[C@@]9(C)[C@@H]7CC[C@H]6C5(C)C)OC[C@@H](O[C@@H]5O[C@H](CO)[C@@H](O)[C@H](O)[C@H]5O)[C@@H]4O)O[C@@H]3C)OC[C@H]2O)O[C@H](COS(=O)(=O)[O-])[C@H]1O.[Na+]` (stereo partly drawn) [Cladoloside I1 (28), cladoloside I1], the IC50 turned out to be 13.4 ± 0.92 µM in data set [1], 11.2 ± 1.02 µM in data set [2], 3.02 ± 0.28 µM in data set [4] and 9.91 ± 0.68 µM in data set [5]. Further, the “Selectivity Index (SI), MCF-7” value in data set [2] is 1.20. For the same compound, the “ED50, Erythrocytes (hemolytic activity)” value is 1.72 ± 0.10 µM in data set [3] (listed as I1 (28)) and 1.72 µM in data set [3] (listed as cladoloside I1 (28)). The “Selectivity Index (SI), MDA-MB-231” value in data set [4] amounted to 4.45. Also, in data set [5], the “Selectivity Index (SI), T-47D” value was determined as 1.36.

Take `C=C(C)CCC[C@]1(C)OC(=O)C23CC=C4[C@@H](CC[C@H]5C(C)(C)[C@@H](O[C@@H]6OC[C@@H](O[C@@H]7O[C@H](CO)[C@@H](O)[C@H](O[C@@H]8O[C@H](COS(=O)(=O)[O-])[C@@H](O)[C@H](OC)[C@H]8O)[C@H]7O)[C@H](O)[C@H]6O[C@@H]6O[C@H](C)[C@@H](O[C@@H]7OC[C@@H](O)[C@H](O)[C@H]7O)[C@H](O)[C@H]6O)CC[C@]45C)[C@]2(C)CC(=O)[C@@H]31.[Na+]` (stereo partly drawn) [Cladoloside J1 (30), Cladoloside J1]: the IC50 in data set [1] was more than 20 µM; in data set [2], more than 20 µM; in data set [4], 6.18 ± 0.54 µM; in data set [5], more than 20 µM. Further, the “ED50, Erythrocytes (hemolytic activity)” value in data set [3] came to 1.10 ± 0.10 µM. In addition, in data set [4], the “Selectivity Index (SI), MDA-MB-231” value is recorded as more than 3.24.

As to `CO[C@@H]1[C@@H](O)[C@H](O[C@@H]2[C@@H](O)[C@H](O[C@@H]3CO[C@@H](O[C@H]4CC[C@]5(C)C6=CCC78C(=O)O[C@@](C)([C@@H](CCC(C)C)OC(C)=O)[C@H]7[C@@H](OC(C)=O)C[C@@]8(C)[C@@H]6CC[C@H]5C4(C)C)[C@H](O[C@@H]4O[C@H](C)[C@@H](O[C@@H]5OC[C@@H](O)[C@H](O[C@@H]6O[C@H](COS(=O)(=O)[O-])[C@@H](O)[C@H](OC)[C@H]6O)[C@H]5O)[C@H](O)[C@H]4O)[C@H]3O)O[C@H](CO)[C@H]2O)O[C@H](CO)[C@H]1O.[Na+]` (stereo partly drawn) [Cladoloside K1 (31), cladoloside K1], the IC50 is more than 20 µM in data set [1], more than 20 µM in data set [2], 5.83 ± 0.41 µM in data set [4] and 12.1 ± 1 µM in data set [5]. In addition, the “ED50, Erythrocytes (hemolytic activity)” value in data set [3] (listed as K1 (31)) is 0.31 ± 0.02 µM; in data set [3] (listed as cladoloside K1 (31)), 0.31 µM. Moreover, the “Selectivity Index (SI), T-47D” value in data set [5] is reported as more than 1.65.

For the compound `C=C(C)CC[C@@H](O)[C@]1(C)OC(=O)C23CC=C4[C@@H](CC[C@H]5C(C)(C)[C@@H](O[C@@H]6OC[C@@H](O[C@@H]7O[C@H](CO)[C@@H](O)[C@H](O[C@@H]8O[C@H](CO)[C@@H](O)[C@H](OC)[C@H]8O)[C@H]7O)[C@H](O)[C@H]6O[C@@H]6O[C@H](C)[C@@H](O[C@@H]7OC[C@@H](O)[C@H](O[C@@H]8O[C@H](COS(=O)(=O)[O-])[C@@H](O)[C@H](OC)[C@H]8O)[C@H]7O)[C@H](O)[C@H]6O)CC[C@]45C)[C@]2(C)C[C@H](OC(C)=O)[C@@H]31.[Na+]` (stereo partly drawn) [Cladoloside K2 (32), cladoloside K2], the IC50 was 14.5 ± 1.07 µM in data set [1], more than 20 µM in data set [2], 6.81 ± 0.73 µM in data set [4] and 14.1 ± 0.91 µM in data set [5]. The figures for the “ED50, Erythrocytes (hemolytic activity)” value in data set [3] (listed as K2 (32)) and in data set [3] (listed as cladoloside K2 (32)) were 4.63 ± 0.41 µM and 4.63 µM, respectively. For the same compound, the “Selectivity Index (SI), T-47D” value in data set [5] came out at 1.03.

On to `C=C(C)CCC[C@]1(C)OC(=O)C23CC=C4[C@@H](CC[C@H]5C(C)(C)[C@@H](O[C@@H]6OC[C@@H](O[C@@H]7O[C@H](CO)[C@@H](O)[C@H](O[C@@H]8O[C@H](COS(=O)(=O)[O-])[C@@H](O)[C@H](OC)[C@H]8O)[C@H]7O)[C@H](O)[C@H]6O[C@@H]6O[C@H](C)[C@@H](O[C@@H]7OC[C@@H](O)[C@H](O[C@@H]8O[C@H](CO)[C@@H](O)[C@H](OC)[C@H]8O)[C@H]7O)[C@H](O)[C@H]6O)CC[C@]45C)[C@]2(C)CC(=O)[C@@H]31.[Na+]` (stereo partly drawn) [Cladoloside L1 (33), Cladoloside L1], for which the IC50 in data set [1] was determined as 17.9 ± 1.12 µM. Further, in data set [2], the IC50 was found to be 12.7 ± 1.01 µM and the “Selectivity Index (SI), MCF-7” value came to 1.41. Also, in data set [3], the “Hemolytic … in words” value is “strong hemolytics” and the “ED50, Erythrocytes (hemolytic activity)” value is 0.20 ± 0.02 µM. Also, in data set [4], the 50% inhibitory concentration (IC50) came out at 13.4 ± 1.08 µM and the “Selectivity Index (SI), MDA-MB-231” value is listed as 1.34. For the same compound, in data set [5], the IC50 was determined as 9.03 ± 0.81 µM and the “Selectivity Index (SI), T-47D” value came to 1.98.

The record behind these values is publication PMC12299463, “Cladolosides of Groups S and T: Triterpene Glycosides from the Sea Cucumber Cladolabes schmeltzii with Unique Sulfation; Human Breast Cancer Cytotoxicity and QSAR” (Marine Drugs, 2025).
